# Assay results reported in PubChem BioAssay AID608 (Sanford-Burnham Center for Chemical Genomics, 2007).
# Activity calls are given as the source filed them. No rule for the calls is given here.
# Molecular target: Peptidyl-prolyl cis-trans isomerase FKBP1A (Homo sapiens) (UniProt P62942)
# Experiment: FKBP12 binders, biophysical, NMR detection (AID 608)
# Conditions: NMR binding, purified FKBP12
# Sequence of Peptidyl-prolyl cis-trans isomerase FKBP1A (Homo sapiens) (P62942 whole entry, looked up): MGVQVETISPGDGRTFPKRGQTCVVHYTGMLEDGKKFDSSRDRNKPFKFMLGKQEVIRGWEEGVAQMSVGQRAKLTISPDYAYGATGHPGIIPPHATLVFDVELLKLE
row,SMILES,Kd
1,CCN1CCN(CCCNc2ncnc3nc[nH]c23)CC1,> 4 mM (inactive)
2,O=C1NC(=O)C(C(=S)Nc2ccccc2)C(=O)N1,> 4 mM (inactive)
3,O=S1(=O)CCC(NCCO)C1 (configuration not stated),> 4 mM (inactive)
4,C=CCc1ccc(OC(=O)c2ccccc2)c(OC)c1,> 4 mM (inactive)
5,COc1c(O)cc(O)cc1O,> 4 mM (inactive)
6,Clc1ccc(-n2ccnc2)nn1,> 4 mM (inactive)
7,NC(N)=NOCC[C@H](N)C(=O)O,> 4 mM (inactive)
8,COc1cc(C)nc(N(CCO)CCO)n1,> 4 mM (inactive)
9,N#CC(O[C@@H]1O[C@H](CO[C@@H]2O[C@H](CO)[C@@H](O)[C@H](O)[C@H]2O)[C@@H](O)[C@H](O)[C@H]1O)c1ccccc1 (some centres not stated),> 4 mM (inactive)
10,O=[n+]1c(CO)c(CO)n([O-])c2ccccc21,> 4 mM (inactive)
11,O=C1CC(c2ccccc2)n2ncnc2N1 (configuration not stated),> 4 mM (inactive)
12,CC(C)=CC(=O)Nc1ccccc1C(N)=O,> 4 mM (inactive)
13,Cc1cc(C(=O)Nc2ccc3c(c2)OCO3)cs1,> 4 mM (inactive)
14,O=C(NCC1CCNCC1)c1ccccn1,> 4 mM (inactive)
15,O=C(O)Cn1nnnc1-c1ccc(F)cc1,> 4 mM (inactive)
16,Cc1ccc(-c2nc(-c3cccnc3)no2)cc1,> 4 mM (inactive)
17,O=c1c(-c2ccco2)[n+]([O-])c2ccccc2n1O,> 4 mM (inactive)
18,CCOc1ccc(NS(=O)(=O)N2CCCCC2)cc1,inactive
19,Cc1ccc(C)c(S(=O)(=O)NCc2cccnc2)c1,> 4 mM (inactive)

row,SMILES,Kd
1,CS(=O)(=O)c1cccc(C(=O)Nc2nccs2)c1,> 4 mM (inactive)
2,Cc1ccc(NS(=O)(=O)N2CCOCC2)cc1Cl,inactive
3,CS(=O)(=O)Nc1ccccc1C(=O)c1ccccc1,> 4 mM (inactive)
4,c1ccc(CCN2CCN(CCc3ccccn3)CC2)nc1,> 4 mM (inactive)
5,O=C(O)CC1C(=O)NCCN1Cc1cccs1 (configuration not stated),> 4 mM (inactive)
6,O=C1C=C(O)c2ccccc2C1=O,> 4 mM (inactive)
7,O=C(O)CNC(=O)c1ccc([N+](=O)[O-])cc1,> 4 mM (inactive)
8,COc1cccc(/C=N/N=C2/NC(=O)CS2)c1,> 4 mM (inactive)
9,O=P(O)(Cc1ccccc1)c1ccccc1,> 4 mM (inactive)
10,Cc1cc(OCC(=O)N2CCOCC2)ccc1NC(=O)OCc1ccccc1,> 4 mM (inactive)
11,CNC(=O)c1cccc(NC(=S)NC)c1,> 4 mM (inactive)
12,Cc1nn(CC(=O)Nc2ccccc2)c(=O)c2ccccc12,> 4 mM (inactive)
13,Cc1ccccc1NS(=O)(=O)c1ccc(F)cc1,> 4 mM (inactive)
14,OC1CCN(C(=S)NC2CC2)CC1,> 4 mM (inactive)
15,CC(=O)C1CCC2C3CCC4C[C@H](O)CCC4(C)C3C[C@H](O)C12C (some centres not stated),> 4 mM (inactive)
16,COC(=O)c1cc2ccccc2cn1,> 4 mM (inactive)
17,Cc1cc(C(=O)N2CCN(S(C)(=O)=O)CC2)cs1,> 4 mM (inactive)
18,CC(C)=CCc1c2c(c3occ(-c4ccc(O)c(O)c4)c(=O)c3c1O)C=CC(C)(C)O2,> 4 mM (inactive)
19,O=C(CS(=O)(=O)c1ccccc1)Nc1nccs1,> 4 mM (inactive)

row,SMILES,Kd
1,NC(=O)C1CCN(S(=O)(=O)c2ccccc2)CC1,> 4 mM (inactive)
2,CCOc1ccc(OCC(=O)N2CCOCC2)cc1,inactive
3,COc1ccc(-c2nc(N)n(C(C)=O)n2)cc1,> 4 mM (inactive)
4,Cc1nc2nc(COc3ccccc3)nn2c(C)c1Cl,> 4 mM (inactive)
5,O=c1c(-c2cc(O)c(O)c(O)c2)coc2cc(O)c(O)c(O)c12,> 4 mM (inactive)
6,CSc1ccccc1NC(=O)Cn1c(-c2cscn2)nc2ccccc21,> 4 mM (inactive)
7,Cc1ccc(C)c(C(=O)n2cnnc2N)c1,> 4 mM (inactive)
8,COC(=O)C[C@@H]1C2(C)C(=O)[C@@H](CC3=C4CC(=O)O[C@@H](c5ccoc5)[C@]4(C)CCC32)[C@H](OC(C)=O)C1(C)C (some centres not stated),> 4 mM (inactive)
9,O=C(Nc1ncccn1)c1cccc(F)c1,> 4 mM (inactive)
10,Nc1cc(C(F)(F)F)ccc1N1CCOCC1,> 4 mM (inactive)
11,N#Cc1cc2ccccc2nc1N,> 4 mM (inactive)
12,O=C(CSc1ncnc2ccccc12)NCCCO,> 4 mM (inactive)
13,COC(=O)C[C@H]1C(C)(C)C(=O)[C@@H]2CC3C4=CC(=O)O[C@@H](c5ccoc5)[C@]4(C)CCC3C1(C)C2=O (some centres not stated),> 4 mM (inactive)
14,C=CC(C1=CC(=O)C(OC)=CC1=O)c1ccc(O)cc1 (configuration not stated),> 4 mM (inactive)
15,Cc1cc(C(=O)N2CCOCC2)c(C)o1,> 4 mM (inactive)
16,CC1(C)Cc2nc3n[nH]c(N)c3cc2CO1,> 4 mM (inactive)
17,N#Cc1cc(-c2ccccc2)oc1N,> 4 mM (inactive)
18,CCc1nnsc1C(=O)Nc1nccs1,> 4 mM (inactive)
19,Cc1csc(SCC(=O)N2CCCC2)n1,> 4 mM (inactive)
